Test results from publication PMC6755732, “Structural, Biochemical, and In Vivo Characterization of MtrR-Mediated Resistance to Innate Antimicrobials by the Human Pathogen Neisseria gonorrhoeae” (Journal of Bacteriology, 2019).

Columns and labels:
[1] = molecular target: T1, MtrR(W136L)-mtrCDE operator DNA (Neisseria gonorrhoeae, UniProt P39897, W136L); assay: Electrophoretic mobility shift assay, induction of MtrR(W136L); type: biochemical; conditions: EMSA
T1 construct: hexahistidine tag with TEV protease site (N, cleaved yes); made in house; host or cells: Rosetta Gami B(DE3) pLysS cells (Novagen)
T1 sequence (P39897 whole entry W136L): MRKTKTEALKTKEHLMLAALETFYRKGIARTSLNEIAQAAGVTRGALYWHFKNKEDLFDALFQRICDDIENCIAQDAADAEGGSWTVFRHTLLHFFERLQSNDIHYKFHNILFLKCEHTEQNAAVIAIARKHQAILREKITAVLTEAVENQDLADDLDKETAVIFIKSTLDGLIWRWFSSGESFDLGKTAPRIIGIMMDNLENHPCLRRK
Source text: (§1) We hypothesized that the bile salts chenodeoxycholate and taurodeoxycholate occupied the binding pocket in which the CAPS electron density was observed. In our crystal structure, residues R176′ and W136 appear to be potentially important for H bonding and π stacking, respectively, with the ligand (see Fig. S4). Therefore, we generated and purified the single-site mutant MtrR proteins, MtrR(R176A), MtrR(R176E), and MtrR(W136L), to determine the importance of these residues for ligand binding (see the supplemental material) ([40]). First, we determined the capabilities of these single mutants to bind DNA with our FP-based assay. All the mutants were capable of binding the mtrCDE target sequence, with dissociation constants in the nanomolar range and all within 5-fold of the wild-type protein (see Fig. S7A). […] At higher concentrations (5 to 10 mM), taurodeoxycholate induced all three mutants. […]
(§2) Complementary oligodeoxynucleotides containing the MtrR binding site from the mtrC promoter (top strand, 5′-[…]-3′; an unusual pseudo-direct repeat is underlined) were annealed by heating an equimolar mixture of the top and bottom strands at 95°C for 5 min, followed by slow cooling to room temperature. […] The gels were stained with ethidium bromide and visualized and analyzed with an Alpha Innotech gel documentation instrument. The intensities of free DNA were measured with ImageJII ([61], [62]).

[2] = molecular target: T2, MtrR(R176A)-mtrCDE operator DNA (Neisseria gonorrhoeae, UniProt P39897, R176A); assay: Electrophoretic mobility shift assay, induction of MtrR(R176A); type: biochemical; conditions: EMSA
T2 construct: hexahistidine tag with TEV protease site (N, cleaved yes); made in house; host or cells: Rosetta Gami B(DE3) pLysS cells (Novagen)
T2 sequence (P39897 whole entry R176A): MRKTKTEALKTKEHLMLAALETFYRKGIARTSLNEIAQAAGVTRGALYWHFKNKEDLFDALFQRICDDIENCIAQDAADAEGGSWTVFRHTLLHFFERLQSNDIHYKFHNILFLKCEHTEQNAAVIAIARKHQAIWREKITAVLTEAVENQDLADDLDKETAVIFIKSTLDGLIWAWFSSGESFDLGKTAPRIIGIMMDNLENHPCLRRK
Source text: as §1, §2

MtrR(R176E) = molecular target: T3, MtrR(R176E) (Neisseria gonorrhoeae, UniProt P39897, R176E); assay: Isothermal titration calorimetry, MtrR(R176E) with bile salts; type: binding; conditions: ITC
T3 construct: hexahistidine tag with TEV protease site (N, cleaved yes); made in house; host or cells: Rosetta Gami B(DE3) pLysS cells (Novagen)
T3 sequence (P39897 whole entry R176E): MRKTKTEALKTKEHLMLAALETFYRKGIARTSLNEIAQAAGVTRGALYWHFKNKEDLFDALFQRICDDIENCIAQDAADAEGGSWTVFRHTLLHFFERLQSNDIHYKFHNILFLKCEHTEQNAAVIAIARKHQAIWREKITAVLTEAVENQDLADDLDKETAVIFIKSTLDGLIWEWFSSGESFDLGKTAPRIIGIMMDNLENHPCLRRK
Description: Purified MtrR was dialyzed extensively against buffer containing 20 mM Tris [pH 8.0], 200 mM NaCl, 10% glycerol, and 1 mM TCEP overnight at 4°C. The stock solutions and the necessary dilutions of the bile salts were prepared using this dialysis buffer. Titrations with 20 μM MtrR in the cell and 250 μM ligand in the syringe were performed using a VP-ITC microcalorimeter (Microcal Inc.). All measurements were conducted at 25°C with a stirring speed of 200 rpm. After subtraction of germane blank data, the titration data were analyzed using the program ORIGIN 5.0.
Protein purification for Isothermal Titration Calorimetry experiments and mutant […]
A codon optimized gene of MtrR was synthesized by GenScript and cloned into the pMCSG7 vector in- frame with the N-terminal Hexa- histidine tag and tobacco etch virus (TEV) protease cleavage site. This construct was used as the template for site- directed mutagenesis and to generate wild- type data in supplemental f igures 5-6 and Isothermal Titration Calorimetry data. This protein was overexpressed and purified as described in the “Materials and Methods” of the document, except the he xa -histidine tag MtrR was cleaved by TEV protease following NiNTA affinity chromatography. Cleaved MtrR was purified from tagged MtrR and cleaved hexa- histidine tag by Ni- NTA aff inity chromatography and then further purified by size exclusion chromatography (S200).
Site-directed mutagenesis
To introduce the mutations W 136L, R176A, and R176E, we performed DpnI mediated site-directed mutagenesis. Complementary oligonucleotides containing the desired mutations were obtained from IDT. PCR reactions containing two complementary primers, template DNA, Pfu DNA polymerase buffer, dNTP, and Pfu DNA polymerase were incubated at 95 °C for 30 seconds followed by 18 cycles of 95 °C for […], 55 °C for one minute, and 68 °C for 11 minutes. After cooling the reactions to 4 °C, 10 units of Dpn1 (NEB) was added to each 50 µl reaction and incubated at 37 °C for 3 hours.
The resulting plasmids were used to transform DH5α (Thermo Fisher) cells for plasmid prep. After checking the sequences to ensure the mutations had been incorporated, these plasmids were overexpressed in Rosetta Gami B(DE3) pLysS cells (Novagen)

[3] = molecular target: T4, MtrR(R176E)-mtrCDE operator DNA (Neisseria gonorrhoeae, UniProt P39897, R176E); assay: Electrophoretic mobility shift assay, induction of MtrR(R176E); type: biochemical; conditions: EMSA
T4 construct: hexahistidine tag with TEV protease site (N, cleaved yes); made in house; host or cells: Rosetta Gami B(DE3) pLysS cells (Novagen)
T4 sequence (P39897 whole entry R176E): as above
Source text: as §1, §2

MtrR-DNA complex = molecular target: T5, MtrR-DNA complex (Neisseria gonorrhoeae, UniProt P39897); type: biochemical; conditions: EMSA, wild-type MtrR, mtrC promoter oligoduplex
T5 construct: nearly all 210 residues of each protomer observed, with the exception of residues 1 through 7; hexahistidine tag (thrombin-cleavable) (cleaved yes); made in house
T5 sequence (P39897 whole entry, one chain of several): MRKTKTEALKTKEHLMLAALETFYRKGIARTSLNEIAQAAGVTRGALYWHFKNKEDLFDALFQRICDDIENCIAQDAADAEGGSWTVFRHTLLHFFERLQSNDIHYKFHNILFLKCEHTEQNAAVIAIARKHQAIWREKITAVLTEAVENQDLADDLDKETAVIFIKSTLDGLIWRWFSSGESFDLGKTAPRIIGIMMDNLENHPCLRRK
Description: To test the hypothesis that these bile salts directly bind to MtrR and potentially derepress gene expression by interfering with the DNA binding activity of MtrR, MtrR-mtrC promoter interactions were tested in the presence and absence of different concentrations of several bile salts. […] It is important to note that this is a competition assay that, due to its experimental design, requires the use of 3 μM DNA and 4 to 10 μM MtrR dimer. Consequently, this means that ∼99.9% of all DNA is MtrR bound.
Complementary oligodeoxynucleotides containing the MtrR binding site from the mtrC promoter (top strand, 5′-[sequence]-3′; an unusual pseudo-direct repeat is underlined) were annealed by heating an equimolar mixture of the top and bottom strands at 95°C for 5 min, followed by slow cooling to room temperature. Binding reactions were carried out in 20-μl volumes of binding buffer (20 mM Tris [pH 8.0], 200 mM NaCl, 10% glycerol, and 1 mM TCEP) containing 1 μg oligoduplex, 1 μg poly(dI-dC), and 4 to 10 μg MtrR. After a 20-minute incubation at room temperature, the preformed complex was incubated with or without various concentrations of selected bile salts at room temperature for an additional 10 min. […] The gels were stained with ethidium bromide and visualized and analyzed with an Alpha Innotech gel documentation instrument. The intensities of free DNA were measured with ImageJII ([61], [62]).

WT MtrR = molecular target: T6, WT MtrR (Neisseria gonorrhoeae, UniProt P39897); assay: ITC ligand competition, WT MtrR presaturated with one bile salt and titrated with the second; type: binding; conditions: WT MtrR (20 μM) preincubated with 20 μM taurodeoxycholate overnight at 4°C
T6 construct: A codon optimized gene of MtrR was synthesized by GenScript and cloned into the; hexahistidine tag with TEV protease site (N, cleaved yes); made in house
T6 sequence (P39897 whole entry): as the sequence (P39897 whole entry, one chain of several) above
Description: (A to D) Isothermal titration calorimetry thermograms and resulting binding isotherms for binding reactions between MtrR(R176E) and chenodeoxycholate (A) and taurodeoxycholate (B), as well as between MtrR(W136L) and chenodeoxycholate (C) and taurodeoxycholate (D). (E and F) Isothermal titration calorimetry thermograms and resulting binding isotherms for ligand competition assays. (E) WT MtrR (20 μM) was incubated with 20 μM taurodeoxycholate overnight at 4°C; chenodeoxycholate was titrated into MtrR-TDCA. (F) WT MtrR (20 μM) was incubated with 20 μM chenodeoxycholate overnight at 4°C; taurodeoxycholate was titrated into MtrR-CDCA.
This finding supports the idea that these ligands occupy different binding sites on MtrR and that the binding of taurodeoxycholate occludes, either directly or allosterically, the binding site of chenodeoxycholate. With our current data, we cannot determine the exact binding location of taurodeoxycholate. […]
Purified MtrR was dialyzed extensively against buffer containing 20 mM Tris [pH 8.0], 200 mM NaCl, 10% glycerol, and 1 mM TCEP overnight at 4°C. […] After subtraction of germane blank data, the titration data were analyzed using the program ORIGIN 5.0.

C[C@H](CCC(=O)O)[C@H]1CC[C@H]2[C@@H]3[C@H](O)C[C@@H]4C[C@H](O)CC[C@]4(C)[C@H]3CC[C@]12C [Chenodeoxycholate, chenodeoxycholate]
Concentration that induces (dissociates from mtrCDE operator DNA) MtrR(W136L) [1]: 5 to 10 mM
Concentration that induces (dissociates from mtrCDE operator DNA) MtrR(R176A) [2]: did not induce either MtrR(R176A) or MtrR(R176E) to the same degree as the wild-type protein
Stoichiometry N, MtrR(R176E) (MtrR(R176E)): 0.521 ± 0.038
ΔH, MtrR(R176E) (MtrR(R176E)): -12.979 ± 8.228 kcal/mol
ΔS, MtrR(R176E) (MtrR(R176E)): -23.00 ± 31.48 cal/mol/deg
Kd (MtrR(R176E); read-out: Kd of bile salt binding to MtrR(R176E)): 97 ± 64 µM
Concentration that induces (dissociates from mtrCDE operator DNA) MtrR(R176E) [3]: did not induce either MtrR(R176A) or MtrR(R176E) to the same degree as the wild-type protein
Concentration that disrupts the preformed MtrR-DNA complex (MtrR-DNA complex): 2 to 3 mM
Binding, ligand competition: chenodeoxycholate titrated into MtrR-TDCA (WT MtrR): minimal binding
